Results published in PubChem BioAssay (NCI).
≈ marks a conversion by molar mass, not a printed value. Where “and” joins values, the source holds several entries; their conditions need not be identical. Equal values may be shown once.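 In this assay, cells in 96-well plates receive the compound at five concentrations for 48 hours. Endpoints are linearly interpolated between the surrounding concentrations. Here, GI50 denotes the concentration required for 50% inhibition of growth. TGI denotes the concentration required for complete inhibition of growth.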 Calls of active or inactive are those of the source. No stated cut-off is given here; in the data, active means GI50 below about 0.43 µM; inactive means the rest.

Columns and labels:
Assay in all cases: NCI tumour cell line growth inhibition, 48 h
HOP-18 NSCLC = test system: HOP-18 NSCLC
DLD-1 colon = test system: DLD-1 colon
DMS 114 small cell lung = test system: DMS 114 small cell lung
DMS 273 small cell lung = test system: DMS 273 small cell lung
SNB-78 CNS = test system: SNB-78 CNS
M19-MEL melanoma = test system: M19-MEL melanoma
KM20L2 colon = test system: KM20L2 colon
RXF-631 renal = test system: RXF-631 renal
MDA-N = test system: MDA-N
XF 498 CNS = test system: XF 498 CNS

Compound	TGI (HOP-18 NSCLC)	TGI (DLD-1 colon)	TGI (DMS 114 small cell lung)	TGI (DMS 273 small cell lung)	TGI (SNB-78 CNS)	TGI (M19-MEL melanoma)	TGI (KM20L2 colon)	TGI (RXF-631 renal)	TGI (MDA-N)	TGI (XF 498 CNS)	also measured
CC1=Nc2ccccc2S/C1=C1/C=NC(=NC#N)N=C1C(=O)Nc1cccc(Cl)c1	> 100 µM	> 100 µM	> 100 µM	> 100 µM	> 100 µM	> 100 µM	> 100 µM	–	–	–	–
CC(=O)[CH-]C(=O)c1ccccc1.CC(=O)[CH-]C(=O)c1ccccc1.Cl.[O-]CCc1ccccn1.[O-]CCc1ccccn1.[Ti+4]	94.8 µM	> 100 µM	–	–	–	75.3 µM	> 100 µM	–	–	–	GI50 (HOP-18 NSCLC): 36.2 µM; GI50 (DLD-1 colon): 30.4 µM; GI50 (M19-MEL melanoma): 25.4 µM; GI50 (KM20L2 colon): 36.2 µM
O=C1c2ccccc2C(=O)c2c1ccc1c3ccccc3n(-c3ccccc3)c21	27.6 µM	41.6 µM	–	34.4 µM	49.3 µM	38.6 µM	53.5 µM	20.7 µM	> 51.4 µM	–	–
COc1cc2c3c(c4ccc(O)cc4c2cc1OC)[C@@H](O)[C@@H]1CCCN1C3	–	–	–	–	–	–	–	–	0.145 µM	–	–
COc1cc2c(cc1O)CCN[C@@]21CS[C@H]2c3c(OC(C)=O)c(C)c4c(c3C(COC1=O)N1C2C2NC(Cc3cc(C)c(OC)c(O)c32)[C@@H]1O)OCO4 (some centres not stated)	–	–	4.5 ng/mL	–	932 ng/mL	4.5 ng/mL	–	–	–	–	outcome (HOP-18 NSCLC): inactive; GI50 (DLD-1 colon): 0.000365 ng/mL and 4.5 ng/mL; GI50 (DMS 114 small cell lung): 4.5 ng/mL (≈ 6.02 nM); outcome (RXF-631 renal): inactive; GI50 (DMS 273 small cell lung): 4.5 ng/mL; GI50 (SNB-78 CNS): 0.00037 ng/mL and 4.5 ng/mL; GI50 (M19-MEL melanoma): 4.5 ng/mL
O=C1CCNC/C1=C\c1ccccc1	–	48.3 µM	73.4 µM	69.1 µM	> 100 µM	39.3 µM	28.4 µM	> 100 µM	–	74.7 µM	–
COc1cc2c(c3oc4c(O)cccc4c(=O)c13)CC(C(C)(O)CCl)O2 (configuration not stated)	–	–	–	–	–	–	–	–	2.45 µM	–	–
O=C1N(c2ccc(Cl)cc2)C(=O)C2(SC=NN2Cc2ccccc2)N1c1ccc(Cl)cc1 (configuration not stated)	> 100 µM	> 100 µM	> 100 µM	–	> 100 µM	> 100 µM	> 100 µM	> 100 µM	–	94.4 µM	–
N#C/C(=C/c1ccc([N+](=O)[O-])o1)c1ccccc1	> 100 µM	> 100 µM	> 100 µM	> 100 µM	> 100 µM	> 100 µM	> 100 µM	–	–	–	–
Nc1nc(N)c(CCCCc2ccc([N+](=O)[O-])cc2)c(N)n1	> 100 µM	> 100 µM	> 100 µM	> 100 µM	> 100 µM	> 100 µM	> 100 µM	–	> 100 µM	> 100 µM	–
CC1OC(O[C@@H]2C=C3CC[C@@H]4[C@H](CC[C@]5(C)[C@@H](c6ccc(=O)oc6)CC[C@]45O)[C@@]3(C)CC2)C(O)C(O)C1O (some centres not stated)	–	0.003 µM	–	0.003 µM	0.003 µM	–	–	–	–	–	GI50 (DLD-1 colon): 0.000621 µM; GI50 (DMS 273 small cell lung): 0.000892 µM; GI50 (SNB-78 CNS): 0.000596 µM; GI50 (M19-MEL melanoma): 0.00173 µM; GI50 (KM20L2 colon): 0.00131 µM
COC1=CC(=O)C2(C=C1OC)OC[C@H]1Oc3c(ccc4c3C=CC(C)(C)O4)C(=O)[C@H]12 (some centres not stated)	–	> 100 µM	94.5 µM	> 100 µM	> 100 µM	> 100 µM	> 100 µM	> 100 µM	–	> 100 µM	–
COc1cc(O)c(C(=O)C2Cc3ccccc32)c(OC)c1 (configuration not stated)	> 100 µM	> 100 µM	97.2 µM	> 100 µM	> 100 µM	–	> 100 µM	> 100 µM	–	–	–
COC(=O)CC(=O)OC1C[C@@H]2CCC3C(C)(C)CCC[C@]3(C)C23CC[C@@]1(C)C3 (some centres not stated)	–	34.2 µM	37.9 µM	–	42.5 µM	36.3 µM	37.6 µM	–	–	34.4 µM	–
CC(=O)OC1COC(N2C(=O)C(=O)c3ccccc32)C(OC(C)=O)C1OC(C)=O (configuration not stated)	–	> 100 µM	> 100 µM	> 100 µM	> 100 µM	> 100 µM	> 100 µM	> 100 µM	–	–	–
O=[N+]([O-])c1ccc(N=P(c2ccccc2)(c2ccccc2)c2ccccc2)n2nnnc12	> 100 µM	–	> 100 µM	> 100 µM	–	> 100 µM	> 100 µM	–	–	> 100 µM	–
COc1ccc2c(Cl)cc(NC(=S)Nc3ccccc3)nc2c1	–	–	–	–	–	–	–	–	32.4 µM	–	–
O=C1c2c(c3c4ccccc4n(CC4CO4)c3c3[nH]c4ccccc4c23)C(=O)N1Cc1ccccc1 (configuration not stated)	–	–	> 100 µM	> 100 µM	> 100 µM	> 100 µM	–	> 100 µM	–	> 100 µM	–
CCn1c(=O)nc2n(-c3ccc(SC)cc3)c3ccccc3nc-2c1=O	> 100 µM	> 100 µM	> 100 µM	> 100 µM	> 100 µM	> 100 µM	> 100 µM	> 100 µM	–	–	–
CO[C@H]1C[C@H](O[C@H]2CC[C@@]3(C)[C@H](CC[C@@H]4[C@@H]3CC[C@]3(C)[C@@H](C5=CC(=O)OC5)CC[C@]43O)C2)O[C@H](C)[C@H]1O	–	–	–	–	–	–	–	–	0.114 µM	–	–
CC1=C(\C=C/C(C)=C/C=C/C(C)=C/C=C/C=C(C)\C=C\C=C(C)/C=C/C2=C(C)CCCC2(C)C)C(C)(C)CCC1	–	–	–	–	–	–	–	–	> 100 µM	–	–
CCOC(=O)C1=C(C)N(NC(=O)Nc2ccccc2)C2(N)N(NC(=O)Nc3ccccc3)C(C)=C(C(=O)OCC)C12C#N (configuration not stated)	34.3 µM	34.1 µM	32.9 µM	31.3 µM	37.6 µM	31.6 µM	33.4 µM	–	–	–	–
CCNC(=O)O/N=C1\CCC2[C@@H]3CC=C4C[C@@H](OC(=O)NCC)CC[C@]4(C)C3CC[C@]12C (some centres not stated)	6.73 µM	> 100 µM	1.82 µM	3.54 µM	–	4.79 µM	12.7 µM	17.3 µM	–	0.911 µM	–
CCOC(=O)C(Oc1ccc(OC)c2c1C(=O)CCC2)c1ccccc1 (configuration not stated)	–	> 100 µM	> 100 µM	> 100 µM	> 100 µM	> 100 µM	> 100 µM	–	–	> 100 µM	–

Compound	TGI (HOP-18 NSCLC)	TGI (DLD-1 colon)	TGI (DMS 114 small cell lung)	TGI (DMS 273 small cell lung)	TGI (SNB-78 CNS)	TGI (M19-MEL melanoma)	TGI (KM20L2 colon)	TGI (RXF-631 renal)	TGI (MDA-N)	TGI (XF 498 CNS)	also measured
COC(=O)C(=O)C(C(=O)C(=O)Nc1cc(C)ccc1C)c1nc2ccccc2[nH]c1=O (configuration not stated)	–	–	–	–	–	–	–	–	> 100 µM	–	–
NP1(Oc2ccc(F)cc2)=NP(N)(Oc2ccc(F)cc2)=NP(Oc2ccc(F)cc2)(Oc2ccc(F)cc2)=N1 (configuration not stated)	–	–	–	–	–	–	–	–	19 µM	–	–
CCc1ccc([OH2+])c(C(=O)[O-])c1.CCc1ccc([OH2+])c(C(=O)[O-])c1.CCc1ccc([OH2+])c(C(=O)[O-])c1.CCc1ccc([OH2+])c(C(=O)[O-])c1.[Cu+2].[Cu+2]	–	–	–	–	–	–	–	–	> 100 µM	–	GI50 (MDA-N): > 71.1 µM
CC(=O)O[C@H]1CSC[C@@H](OC(C)=O)C1[N+](=O)[O-] (some centres not stated)	> 100 µM	–	> 100 µM	> 100 µM	> 100 µM	> 100 µM	> 100 µM	> 100 µM	–	–	–
Cc1ccccc1NC(=O)C(=O)C(C(=O)c1ccccc1F)C1OC(=O)c2ccccc21 (configuration not stated)	79.4 µM	57.7 µM	53.3 µM	64.5 µM	80.8 µM	–	> 100 µM	73.6 µM	–	–	–
CCCCCCNC(=O)CCN(C(=O)O)S(=O)(=O)c1ccc(NC(=O)c2ccccc2)cc1	> 100 µM	43.2 µM	> 53.1 µM	> 55.2 µM	> 100 µM	> 81.6 µM	> 100 µM	–	–	> 100 µM	–
CN(N=O)c1ccc(/C=C/c2ccnc3ccccc23)cc1	–	–	–	–	–	–	–	–	> 100 µM	–	–
O=C1OC(c2ccccc2)=N/C1=C\c1ccccc1	–	–	–	–	–	–	–	–	> 100 µM	–	–
C=C1C(=O)C23C(O)CC4C(C)(C)CCC(O)C4(C)C2CC(OC(C)=O)C1[C@H]3O (some centres not stated)	3.82 µM	4.65 µM	–	3.79 µM	–	3.22 µM	11.1 µM	15.7 µM	20.6 µM	3.33 µM	–
Nc1ncc(CN2CCCC2)c(-c2ccccc2O)n1	> 750 µM	> 750 µM	> 750 µM	> 750 µM	–	> 750 µM	> 750 µM	–	–	> 750 µM	–
CN(C(=O)C12C3C4C1C1C2C3C41C#N)C(C)(C)C (configuration not stated)	–	> 100 µM	> 100 µM	> 100 µM	> 100 µM	> 100 µM	> 100 µM	> 100 µM	–	–	–
N/N=C1/C(=O)N(c2ccc(Cl)cc2)C(=O)C(=O)C1c1nc2ccccc2s1 (configuration not stated)	> 100 µM	> 100 µM	> 100 µM	> 100 µM	> 100 µM	> 100 µM	> 100 µM	–	–	> 100 µM	–
COc1oc(C2C/C(=C/C(C)=C/C(C)=C/C(C)=C/c3ccc([N+](=O)[O-])cc3)CO2)c(C)c(=O)c1C (configuration not stated)	–	–	–	–	–	–	–	–	23.9 µM	–	–
N#Cc1sc2nc3c(c(-c4ccccc4)c2c1N)CCCC3	–	–	–	> 100 µM	> 100 µM	> 100 µM	–	–	–	92.2 µM	–
CC1=C(C(=S)Nc2ccc(Cl)c(C(=O)OC(C)C)c2)SCCO1	–	–	–	–	–	–	–	–	39.2 µM	–	–
CN(C)NC(=O)NC12CC3CC(CC(C3)C1)C2	–	–	–	> 100 µM	> 100 µM	> 100 µM	> 100 µM	–	–	> 100 µM	–
COc1cc([C@@H]2c3cc4c(cc3[C@@H](OC3OC5COC(C)OC5C(O)C3O)[C@H]3COC(=O)[C@H]23)OCO4)cc(OC)c1O (some centres not stated)	121 µM and 232 µM	–	24.6 µM and 66.8 µM	32.9 µM	154 µM and 604 µM	50.3 µM and 332 µM	133 µM and 225 µM	–	4.36 µM	73.6 µM and 71.1 µM	GI50 (DMS 273 small cell lung): 58.8 µM; GI50 (MDA-N): 18.6 µM
Cc1nc2ccccc2c(=O)n1/N=C(\N=Nc1cc(Cl)ccc1Cl)c1ccc(N(C)C)cc1	> 100 µM	> 100 µM	93.6 µM	> 100 µM	–	> 100 µM	> 100 µM	–	–	8.35 µM	–
COc1cc2c3c(c4cc(OC)c(OC)cc4c2cc1OC)CN1CCC[C@H]1C3	–	–	–	–	–	–	–	–	6.57 µM and 0.776 µM	–	GI50 (MDA-N): 0.0817 µM and < 0.0129 µM
CCOC(=O)C(=O)CC(=O)C(Br)C(Br)c1ccc(Cl)cc1 (configuration not stated)	–	43.1 µM	> 100 µM	> 100 µM	> 100 µM	52.4 µM	> 100 µM	> 100 µM	–	–	–
CSCSCC(CO)NC(=O)/C=C/c1c(C)[nH]c(=O)[nH]c1=O (configuration not stated)	> 100 µM	> 100 µM	> 100 µM	> 100 µM	> 100 µM	> 100 µM	> 100 µM	–	–	–	–
NN=C1/C(=C\c2ccccc2)CCC/C1=C/c1ccccc1	> 100 µM	> 100 µM	75.1 µM	> 100 µM	> 100 µM	> 100 µM	> 100 µM	–	–	–	–
CC(C)(c1ccc(C=O)o1)c1ccc(C(C)(C)c2ccc(C=O)o2)o1	> 100 µM	–	–	> 100 µM	> 100 µM	–	> 100 µM	> 100 µM	–	–	–
